Assay results from US20230167120A1, “ARYL-FUSED ISOSELENAZOLE COMPOUND CONTAINING TETRAZINE SUBSTITUENT, SYNTHESIS METHOD THEREFOR, AND USE THEREOF” (KEAISE MEDICINE WUHAN CORP., priority 2020, published 2023).
Marks after values point to notes of the source that are not given here.

Tests used:
[1] = tested on: human glioma cell U87; assay: Pharmacodynamic study in human glioma cell U87 subcutaneous model; type: in vivo, Balb/c nude mice; details: compounds 20 mg/Kg, q.d.×14 days
Source text: The route of administration was intragastric administration ([…]., q.d.×14 days).

[2] = tested on: U251TR human glioma cells; assay: In-vitro anti-cancer activity screening, SRB method, U251TR; type: cell-based; details: Glioma cell, drug-resistant strain
Method: (§1) Referring to the method of example 9, two tumor cell lines, U251MG and U251TR human glioma cells, were selected, and temozolomide and the compounds of the present disclosure were subjected to in-vitro anti-cancer activity screening using the SRB method.

[3] = tested on: human glioma cells (LN229); assay: In-vitro growth inhibition, MTT method, LN229; type: cell-based; details: LN-229, 48 h
Method: (§2) The in-vitro growth inhibitory activity of compounds 1 to 8 of the present disclosure against human glioma cells (U87 and LN229), human hepatoma cells (SMMC-7721) and human pancreatic carcinoma cells (Panc1) was studied adopting the MTT method.
(§3) U87, LN229, SMMC-7721 and Panc1 cells growing at log phase were separately inoculated into a 96-well plate at a density of 5×10^4 cells/mL, 180 μL/well. After the cells were attached to the wall, 20 μL of a drug liquid was added to each well, so that the final concentrations of the drug were 0 μM, 5 μM, 10 μM, 20 μM and 50 μM. After 48 h of action, a 5 mg/mL MTT solution (20 μL/well) was added. After the cells were incubated in a CO2 incubator for 3 to 4 h, the supernatant was carefully discarded. After the residual liquid was air-dried, acidified isopropanol (50 μL of concentrated hydrochloric acid dissolved in 500 mL of isopropanol) was added at […], and the plate was shaken on a shaker for 30 min. After the crystals were completely dissolved, absorbance OD values were measured by a microplate reader at 570 nm.
(§4) Cell viability %=(drug-treated cell OD−blank group OD)/(control cell OD−blank group OD)×100
(§5) Cell killing rate %=1−cell viability %

[4] = tested on: human glioma cell U87; assay: In-vivo antitumor activity, U87 tumor-bearing nude mice, i.g. dosing; parameters: species or system Balb/c nude mice; details: temozolomide group 30 mg·kg^−1, i.g., q.d., end of the experiment; for Tumor volume: 11 days
Source text: The tumor emergence rate was 100%.
The solvent was freshly prepared when needed each day.

[5] = tested on: U251MG human glioma cells; assay: In-vitro anti-cancer activity screening, SRB method, U251MG; type: cell-based; details: U-251
Method: as §1

[6] = tested on: human glioma cells (U87); assay: In-vitro growth inhibition, MTT method, U87; type: cell-based; details: Glioma cell, 48 h
Method: as §2
as §3, with “After the cells were attached to the wall, 20 μL of a drug liquid was added to each well, so that the final concentrations of the drug were 0 μM, 5 μM, 10 μM, 20 μM and 50 μM.” left out
as §4, §5

[7] = tested on: human glioma cell U87; assay: Tumor volume inhibition rate, i.v. dosing; type: in vivo, Balb/c nude mice; details: Mus musculus, iv, TMZ 10 mg·kg^−1, i.v.
Method: In addition, low-dosage 0409 (20 mg·kg^−1, i.v.) and TMZ (10 mg·kg^−1, i.v.) were synchronously used for an assay to determine the volume tumor inhibition rate.

[8] = tested on: human pancreatic carcinoma cells (Panc1); assay: In-vitro growth inhibition, MTT method, Panc1; type: cell-based; details: PANC-1, 48 h
Method: as §2, §3, §4, §5

[9] = tested on: human hepatoma cells (SMMC-7721); assay: In-vitro growth inhibition, MTT method, SMMC-7721; type: cell-based; details: 48 h
Method: as §2, §3, §4, §5

[10] = 240 h, Day 10, 20 mg·kg^−1, i.v.
[11] = 264 h, Day 11, 20 mg·kg^−1, i.v.
[12] = 288 h, Day 12, 20 mg·kg^−1, i.v.
[13] = 312 h, Day 13, 20 mg·kg^−1, i.v.
[14] = 336 h, Day 14, 20 mg·kg^−1, i.v.
[15] = 360 h, Day 15, 20 mg·kg^−1, i.v.
[16] = 384 h, Day 16, 20 mg·kg^−1, i.v.
[17] = 408 h, Day 17, 20 mg·kg^−1, i.v.
[18] = 432 h, Day 18, 20 mg·kg^−1, i.v.

SMILES: Cn1nnc2c(C(N)=O)ncn2c1=O [TMZ, temozolomide, reference compound]
- Tumor inhibition rate ([1]; Day 1): 6.77%
- Tumor inhibition rate ([1]; Day 4): 38.14%
- Tumor inhibition rate ([1]; Day 7): 54.29%
- Tumor inhibition rate ([1]; Day 10): 46.23%
- Tumor inhibition rate ([1]; Day 14 (end of the experiment)): 14.26%
- IC50 [2]: > 500 µM
- IC50 [3]: > 500 µM
- Tumor volume [4]: 209.18±57.83 mm^3
- Tumor volume ([4]; listed as Temozolomide): 209.18 ± 57.83*** mm^3
- Tumor proliferation inhibition rate [4]: 62.75%
- Tumor weight [4]: 0.29 ± 0.07 g
- Tumor weight ([4]; listed as Temozolomide): 0.29 ± 0.07 g
- IC50 [5]: 431 ± 25.8 µM
- IC50 [6]: 373 ± 24.1 µM
- inhibition in vivo at 20 mg/kg [7, 10]: 36.7%
- inhibition in vivo at 20 mg/kg [7, 11]: 58.9%
- inhibition in vivo at 20 mg/kg [7, 12]: 38%
- inhibition in vivo at 20 mg/kg [7, 13]: 38.1%
- inhibition in vivo at 20 mg/kg [7, 14]: 24.4%
- inhibition in vivo at 20 mg/kg [7, 15]: 63.9%
- inhibition in vivo at 20 mg/kg [7, 16]: 54.3%
- inhibition in vivo at 20 mg/kg [7, 17]: 51%
- inhibition in vivo at 20 mg/kg [7, 18]: 54.5%

SMILES: COc1ccc2[se]n(CCNC(=O)c3ncn4c(=O)n(C)nnc34)c(=O)c2c1 [Compound 7, 3,4-dihydro-3-methyl-4-oxo-N-(3(2H)-oxo-5-methoxy-1,2-benzisoselenazol-2-yl)-ethyl-imidazo[5,1-d]-1,2,3,5-tetrazine-8-carboxamide]
- IC50 [2]: > 500 µM
- IC50 [3]: 21.2 ± 1.28 µM
- IC50 [8]: 15.7 ± 6.22 µM
- IC50 [5]: 154 ± 5.64 µM
- IC50 [9]: 27 ± 3.22 µM
- IC50 [6]: 47 ± 2.88 µM
- inhibition in vivo at 20 mg/kg [7, 10]: 22%
- inhibition in vivo at 20 mg/kg [7, 11]: 29.7%
- inhibition in vivo at 20 mg/kg [7, 12]: 37.5%
- inhibition in vivo at 20 mg/kg [7, 13]: 48%
- inhibition in vivo at 20 mg/kg [7, 14]: 45.5%
- inhibition in vivo at 20 mg/kg [7, 15]: 51.4%
- inhibition in vivo at 20 mg/kg [7, 16]: 59.7%
- inhibition in vivo at 20 mg/kg [7, 17]: 46.3%
- inhibition in vivo at 20 mg/kg [7, 18]: 54.7%

SMILES: Cn1nnc2c(C(=O)NCCn3[se]c4ccc(Br)cc4c3=O)ncn2c1=O [Compound 5, 3,4-dihydro-3-methyl-4-oxo-N-(3(2H)-oxo-5-bromo-1,2-benzisoselenazol-2-yl)-ethyl-imidazo[5,1-d]-1,2,3,5-tetrazine-8-carboxamide]
- IC50 [2]: 56.2 ± 11.7 µM
- IC50 [3]: 14.4 ± 3.89 µM
- IC50 [8]: 4.41 ± 2.89 µM
- IC50 [5]: 61.7 ± 5.79 µM
- IC50 [9]: 7.77 ± 3.28 µM
- IC50 [6]: 35.8 ± 6.27 µM
- inhibition in vivo at 20 mg/kg [7, 10]: 27.1%
- inhibition in vivo at 20 mg/kg [7, 11]: 27%
- inhibition in vivo at 20 mg/kg [7, 12]: 36.8%
- inhibition in vivo at 20 mg/kg [7, 13]: 36.8%
- inhibition in vivo at 20 mg/kg [7, 14]: 44.6%
- inhibition in vivo at 20 mg/kg [7, 15]: 59.5%
- inhibition in vivo at 20 mg/kg [7, 16]: 61.2%
- inhibition in vivo at 20 mg/kg [7, 17]: 58.5%
- inhibition in vivo at 20 mg/kg [7, 18]: 64.4%

SMILES: Cn1nnc2c(C(=O)NCCn3[se]c4ccc(F)cc4c3=O)ncn2c1=O [Compound 2, 3,4-dihydro-3-methyl-4-oxo-N-(3(2H)-oxo-5-fluoro-1,2-benzisoselenazol-2-yl)-ethyl-imidazo[5,1-d]-1,2,3,5-tetrazine-8-carboxamide]
- IC50 [2]: > 500 µM
- IC50 [3]: 52.2 ± 10.7 µM
- IC50 [8]: 22.2 ± 8.78 µM
- IC50 [5]: 363 ± 21.4 µM
- IC50 [9]: 16.4 ± 3.59 µM
- IC50 [6]: > 500 µM
- inhibition in vivo at 20 mg/kg [7, 10]: 85%
- inhibition in vivo at 20 mg/kg [7, 11]: 84.6%
- inhibition in vivo at 20 mg/kg [7, 12]: 82.9%
- inhibition in vivo at 20 mg/kg [7, 13]: 85.8%
- inhibition in vivo at 20 mg/kg [7, 14]: 86.3%
- inhibition in vivo at 20 mg/kg [7, 15]: 85.8%
- inhibition in vivo at 20 mg/kg [7, 16]: 84.4%
- inhibition in vivo at 20 mg/kg [7, 17]: 86.7%
- inhibition in vivo at 20 mg/kg [7, 18]: 86.5%

SMILES: Cn1nnc2c(C(=O)NCCn3[se]c4ccc(Cl)cc4c3=O)ncn2c1=O [Compound 4, 3,4-dihydro-3-methyl-4-oxo-N-(3(2H)-oxo-5-chloro-1,2-benzisoselenazol-2-yl)-ethyl-imidazo[5,1-d]-1,2,3,5-tetrazine-8-carboxamide]
- IC50 [2]: > 500 µM
- IC50 [3]: 44.1 ± 6.09 µM
- IC50 [8]: 24.2 ± 11.9 µM
- IC50 [5]: 126 ± 13.3 µM
- IC50 [9]: 5.6 ± 5.84 µM
- IC50 [6]: 134 ± 15.8 µM
- inhibition in vivo at 20 mg/kg [7, 10]: 73.5%
- inhibition in vivo at 20 mg/kg [7, 11]: 75.2%
- inhibition in vivo at 20 mg/kg [7, 12]: 74.5%
- inhibition in vivo at 20 mg/kg [7, 13]: 68.8%
- inhibition in vivo at 20 mg/kg [7, 14]: 74%
- inhibition in vivo at 20 mg/kg [7, 15]: 80.6%
- inhibition in vivo at 20 mg/kg [7, 16]: 84.3%
- inhibition in vivo at 20 mg/kg [7, 17]: 84.7%
- inhibition in vivo at 20 mg/kg [7, 18]: 81%
